Assays:
CYP125A13 [1] = biological target: T1, CYP125A13 (Streptomyces peucetius, UniProt Q70AR4); assay: UV-Vis spectral titration (type I shift), tight-binding quadratic fit; also turnover to 27-hydroxycholesterol with PDX/PDR (Km […])
T1 construct: gene cyp0266
T1 sequence (Q70AR4 1-413): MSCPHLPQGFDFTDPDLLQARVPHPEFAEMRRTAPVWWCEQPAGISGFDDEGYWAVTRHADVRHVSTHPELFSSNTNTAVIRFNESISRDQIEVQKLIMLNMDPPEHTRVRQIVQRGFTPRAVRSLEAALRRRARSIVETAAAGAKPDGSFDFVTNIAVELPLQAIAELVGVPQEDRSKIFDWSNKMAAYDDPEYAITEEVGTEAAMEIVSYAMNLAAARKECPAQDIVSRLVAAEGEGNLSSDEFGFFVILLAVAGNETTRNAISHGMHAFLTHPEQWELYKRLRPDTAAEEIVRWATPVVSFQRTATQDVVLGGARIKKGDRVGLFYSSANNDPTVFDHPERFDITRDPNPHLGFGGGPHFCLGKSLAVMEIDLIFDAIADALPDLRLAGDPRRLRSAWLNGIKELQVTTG

CYP125A13 [2] = biological target: T1, CYP125A13; assay: UV-Vis spectral titration (type I shift), tight-binding quadratic fit; no product formation detected

Kd (CYP125A13 [1])	Structure (SMILES)	Kd (CYP125A13 [2])
56.9 ± 11.3 µM	CC(C)CCC[C@@H](C)[C@H]1CC[C@H]2[C@@H]3CC=C4C[C@@H](O)CC[C@]4(C)[C@H]3CC[C@]12C [cholesterol]	
	CC(C)CCC[C@@H](C)[C@H]1CC[C@H]2[C@@H]3CCC4=CC(=O)CC[C@]4(C)[C@H]3CC[C@]12C [4-cholesten-3-one]	59.2 ± 3.9 µM

Reference: PMC9728343, “Characterization of CYP125A13, the First Steroid C-27 Monooxygenase from Streptomyces peucetius ATCC27952” (Journal of Microbiology and Biotechnology, 2020)
